Measured values from US11905231B1, “Solid forms, salts and polymorphs of anti-fibrotic compounds” (Certa Therapeutics Pty Ltd, priority 2023, dated 2024).
Structures can show the parent of a compound that is named as a salt. Where two headings read alike, the source gives them in different places.

Assays:
[1] = Thermogravimetric Analysis (TGA) weight loss; assay type: physicochemical; settings: for Weight loss (TGA): when heated from about 25° C. to about 120° C. (text)
[2] = Stability of the ethanolamine salt under accelerated and long-term storage conditions; assay type: physicochemical; settings: for API (Purity_) / Total Impurity: HPLC
Experimental: The samples were assayed by HPLC at the start, after 1 week, and after 2 weeks at the indicated accelerated storage conditions, or after 36 days at room temperature storage. For HPLC analysis, the samples were diluted with 10 mL of TFA/DMSO/ACN (0.1/10/90, v/v/v) to ˜1 mg/mL and analyzed by HPLC.
The samples were also analyzed by XRPD at initial, 1 week, 2 weeks and 36 day time points.

[3] = in vivo; settings: rat, in vivo, po, 20 mg/kg
Experimental: Bioavailability is determined by the equation AUC=F·D/CLT, wherein AUC is the area under the plot of plasma concentration, F is the absolute bioavailability, D is the dose, and CLT is the total clearance.
The rats received a single oral dose of 20 mg/kg body weight (b.w.). The doses were prepared as a 2.0 mg/mL suspension in a vehicle of 20 mM Na2HPO4 buffer containing 5% (v/v) DMSO, 0.4% (v/v) 1M NaOH and 0.4% (v/v) Tween 80 and a dose volume of 10 mL/kg b.w.
Pharmacokinetic analysis was performed on the average plasma concentration for each time point.

[4] = 37° C.
Experimental: (§1) The term “FaSSIF media” refers to Fasted State Simulated Intestinal Fluid media prepared using FaSSIF powder and buffer concentrate obtained from the commercial source Biorelevant (London, UK, biorelevant.com). The FaSSIF powder contains sodium taurocholate, lecithin, sodium chloride, monobasic sodium phosphate and sodium hydroxide. The FaSSIF media is prepared as described at https://biorelevant.com/learning_center/what-is-fassif/. Briefly the pH6.5 buffer containing 0.42 g of NaOH, 3.95 g of NaH2PO4·H2O and 6.19 g of NaCl was dissolved in 0.9 L of purified water and the pH of the solution was adjusted to 6.5 using sodium hydroxide 1N or hydrochloric acid 1N and made up to volume (1 L) with purified water at room temperature. Dissolve 2.24 g of the FaSSIF powder in 0.5 L of the pH6.5 buffer, stirring until the powder is completely dissolved, and then make up to volume (1 L) with buffer at room temperature.
(§2) The samples were stirred using a magnetic stirrer at 37° C. […] The samples were filtered via centrifugation (12,000 rpm, 5 min). The supernatant was diluted (2×) with HPLC grade solvent and analyzed by HPLC.
HPLC gradient was as follows:
(§3) The pH 1.2, pH 4.5, and pH 6.8 media were prepared as standard aqueous buffered solutions following USP <39>.
(§4) As used herein, the term “FaSSIF media” means Fasted Stated Simulated Intestinal Fluid media prepared according to the method known in the art.

[5] = physchem; settings: 37 °C, thermodynamic from solid; for solubility at 1 h: 1 h Solubility; for solubility at 24 h: 24 h Solubility
Experimental: as §1, §2
HPLC gradient was as follows:
as §3, §4

[6] = Dynamic Vapor Sorption (DVS) hygroscopicity; settings: at 80% RH, 25° C., measured during 0% RH to 95% RH increase
Source text: The change in water content is recited as a % change in mass of the starting sample and all such water sorption (DVS) values recited herein will be understood to explicitly include numerical values within a +/−0.2% variance.
The humidity is held constant at 30% RH until the mass change of the sample reaches equilibrium, as determined by the rate of change of weight being 0.01%/minute or less. The humidity is then changed to the next step value and the consequent mass change measured, and so on.
The hygroscopicity values recited herein refer to total water gain since the start of the experiment only and so may not necessarily be equivalent to the actual total water content of the sample.

[7] = 40° C., 75% RH, open vial, 1 week
[8] = 40° C., 75% RH, open vial, 2 weeks
[9] = pH 1.2 aqueous buffer, pH 1.2, simulated gastric fluid, pH 1.2 medium
[10] = pH 4.5 aqueous buffer, pH 4.5 medium

SMILES: C#CCOc1ccc(/C=C/C(=O)Nc2ccccc2C(=O)O)cc1OC [Ethanolamine salt]
- Weight loss by TGA ([1]; from 0° C. to 120° C.): 0.10% from 0 °C to
- Weight loss by TGA ([1]; from r.t. to 120° C.): 0.10% from r.t. to
- Total weight loss by TGA ([1]; from r.t. to 350° C. (or to decomposition if lower)): 0.10% total weight
- Weight loss (TGA) ([1]; listed as ethanolamine): 0.10%
- Weight loss (TGA) ([1]; listed as ethanolamine salt): about 0.1%
- Appearance [2, 7]: White
- API (Purity_) [2, 7]: 99.73%
- Total Impurity [2, 7]: 0.27%
- Appearance [2, 8]: White
- API (Purity_) [2, 8]: 99.72%
- Total Impurity [2, 8]: 0.28%
- Appearance ([2]; 60° C., open vial, 1 week): White
- API (Purity_) ([2]; 60° C., open vial, 1 week): 99.73%
- Total Impurity ([2]; 60° C., open vial, 1 week): 0.27%
- Appearance ([2]; 60° C., open vial, 2 weeks): White
- API (Purity_) ([2]; 60° C., open vial, 2 weeks): 99.71%
- Total Impurity ([2]; 60° C., open vial, 2 weeks): 0.29%
- Appearance ([2]; Initial): White
- API (Purity_) ([2]; Initial): 99.75%
- Total Impurity ([2]; Initial): 0.26%
- Changes in impurity content or crystallinity ([2]; accelerated storage (1-2 weeks) or long-term storage (room temperature, 36 days), HPLC and XRPD): no significant changes
- AUCExtr ([3]; Sprague-Dawley): 1.92%
- AUCInf ([3]; Sprague-Dawley): 405.006 µg·h/mL
- AUClast ([3]; Sprague-Dawley): 396.535 µg·h/mL
- tmax ([3]; Sprague-Dawley): 1.00 h
- Mean concentration (plasma) ([3]; Sprague-Dawley, 0.5 h): 37133 ng/mL
- Mean concentration (plasma) ([3]; Sprague-Dawley, 1 h): 52733 ng/mL
- Mean concentration (plasma) ([3]; Sprague-Dawley, 2 h): 40300 ng/mL
- Mean concentration (plasma) ([3]; Sprague-Dawley, 4 h): 25900 ng/mL
- Mean concentration (plasma) ([3]; Sprague-Dawley, 8 h): 18767 ng/mL
- Mean concentration (plasma) ([3]; Sprague-Dawley, 24 h): 1262 ng/mL
- half-life ([3]; Sprague-Dawley, t1/2): 4.32 h
- Plasma concentration at 24 h post dose compared to the other tested compounds [3]: highest plasma concentrations
- 1 h Solubility ([4]; FaSSIF (pH 7.5)): >7990 µg/mL
- 24 h Solubility ([4]; FaSSIF (pH 7.5)): >7990 µg/mL
- 1 h Solubility ([4]; FaSSIF): 238 µg/mL
- 24 h Solubility ([4]; FaSSIF): 263 µg/mL
- 1 h Solubility ([4]; FeSSIF (pH 7.8)): >8020 µg/mL
- 24 h Solubility ([4]; FeSSIF (pH 7.8)): >8020 µg/mL
- 1 h Solubility ([4]; FeSSIF): 12 µg/mL
- 24 h Solubility ([4]; FeSSIF): 25 µg/mL
- 1 h Solubility ([4]; pH 6.8 medium): 116 µg/mL
- solubility at 1 h [5, 9]: 8 µg/mL
- solubility at 24 h [5, 9]: 3 µg/mL
- solubility at 1 h [5, 10]: 28 µg/mL
- solubility at 24 h [5, 10]: 5 µg/mL
- solubility at 24 h ([5]; pH 6.8 aqueous buffer, pH 6.8 medium): 88 µg/mL
- Hygroscopicity by DVS [6]: 0.49%
- Hygroscopicity by DVS ([6]; listed as ethanolamine): 0.49%
- Hygroscopicity by DVS ([6]; listed as ethanolamine salt): about 0.49%
